Literature values as cited in patent US7851640B2, “Catalytic enantioselective synthesis of flavanones and chromanones” (Northwestern University, priority 2008, dated 2010).

Tested on: MMP-2
Settings: PCa cells treated with genistein

Question: With O=c1c(-c2ccc(O)cc2)coc2cc(O)cc(O)c12 [genistein] as the compound, how does the “levels of MMP-2 gene transcript and protein” value read?
Answer: The value was “decreased levels of both MMP-2 gene transcript and protein”.
